Measurements: US20230295145A1, “PYRROLIDINE DERIVATIVES AND METHODS OF USE” (Genentech, Inc., priority 2020, published 2023)
Like-named read-outs stand apart in the source and are kept apart here.

Tests used:
Assay type in all cases: cell-based
VHL [1] = biological target: T1, VHL (Homo sapiens, UniProt P40337); assay: VHL HEK-293 BRET Assay (VHL NanoBRET Target Engagement Assay); conditions: HEK 293 RT VHL-NanoLuc stable cells; read-out: IC50
T1 construct: expressed in transfected cells
Experimental: The VHL NanoBRET™ Target Engagement Assay analyzes the apparent affinity of test compounds for VHL in cells by competitive displacement of a VHL NanoBRET™ tracer reversibly bound to a NanoLuc® VHL fusion protein stably expressed in the cells.
Test compounds were transferred to the assay plate (384 Well White Non-Binding Corning Assay Plates (Corning-3574)) using an Echo 555 Liquid Handler (Labcyte) in 2.5 nL increments and, as appropriate, intermediate stock concentrations of compounds, in order to prepare a titration series. 50 nL of control compound (10 mM; parental unlabeled VHL antagonist; see structure below) and 50 nL of DMSO (negative control) were dispensed into the appropriate control wells. DMSO was backfilled to a final volume of 50 nL as required. 50 nl per well of 1 mM VHL NanoBRET™ Tracer in DMSO (NanoBRET™ Tracer-PEG2-590 (see structure below)) was transferred into each well using an Echo 555 (ultimately yielding a final concentration of 1 uM). HEK 293 RT VHL-NanoLuc® stable cells were cultured in DMEM High Glucose with Pyruvate, 10% fetal bovine serum, 2 mg/mL of Geneticin Selective Antibiotic (50 mg/mL) and 2 mM HEPES (1 M). Cells were seeded in Opti-MEM (Life Technologies-11058-021), 1.7×10^5 cells/mL, 40 μl per well into the assay plate, centrifuged at 500 rpm for 30 seconds and incubated for 2 hours. Max Signal control wells consisted of DMSO only treated wells. Minimum Signal control wells contained of 10 uM parental unlabeled VHL antagonist (control compound—see structure below). 3× Complete Substrate plus Inhibitor Solution was prepared in Opti-MEM (consists of a 1:166 dilution of NanoBRET™ Nano-Glo® Substrate plus a 1:500 dilution of Extracellular NanoLuc® Inhibitor in Opti-MEM), and 20 ul was dispensed into each well of the 384-well plate and centrifuged at 1000 rpm for 1 minute, then incubated for 2 minutes at room temperature. Background Signal control wells were prepared without tracer for background correction steps.
Plates were read using a PerkinElmer Envision Reader (model 2104-0020) equipped with Luminescence option (Mirror: BRET2 Enh (PE Barcode 659), Emission Filter: Omega 610LP (Barcode 504), 2nd Emission Filter: Umbelliferone 460 (Barcode 207), Measurement height: 6.5 mm, Measurement time: 1 s). The raw BRET ratio values were calculated by dividing the acceptor emission value (610 nm) by the donor emission value (460 nm) for each sample. To correct for background, the BRET ratio in the absence of tracer (average of no-tracer control samples) was subtracted from the BRET ratio of each sample. Raw BRET units were converted to milliBRET units (mBU) by multiplying each raw BRET value by 1,000. The normalized NanoBRET™ signal was calculated relative to the Max Signal control wells (DMSO treated control wells) and the Minimum Signal control wells. Percentage inhibition was calculated relative to the Minimum Signal control and Maximum Signal control wells. IC50 values were derived by four parameter curve fitting using the Robust method.

ABC-1 = assay: Cell Viability Assay (CellTiter-Glo); conditions: 5 days
Experimental: (§1) Cell lines were cultured in RPMI-1640, 5% fetal bovine serum, and 2 mM glutamine in a humidified incubator maintained at 37° C. with 5% CO2. Cells were assessed with a Vi-CELL Cell Viability Analyzer (Beckman Coulter; Brea, CA); viability of at least 90% was required for screening. A Multidropä Combi Reagent Dispenser (Thermo Scientific; Waltham, MA) was used to plate cells into Falcons^â 384-well, black, clear-bottom plates (Catalog No. 353962; Corning; Tewksbury, MA) using seeding densities previous determined to achieve approximately 80% confluence at the final time point of the assay. The compounds were prepared at 1000× in advance using an Echo 555 liquid handler (Labcyte; Sunnyvale, CA) and stored in −80° C. until the day of compound addition. On the following day, cells were treated with compounds at final assay concentration 1 uM and 10 uM using a Bravo Automated Liquid-Handling Platform (Agilent; Santa Clara, CA). After 5 days, 25 mL CellTiter-Glo^â reagent was added using a MultiFloä Microplate Dispenser (BioTek; Winooski, VT). Cell lysis was induced by mixing for 30 minutes on an orbital shaker; plates were then incubated at room temperature for 10 minutes to stabilize the luminescent signal. Luminescence was read by a 2104 EnVision^â Multilabel Plate Reader (PerkinElmer; Waltham, MA).
(§2) The data was processed using Genedata Screener^â, Version 15 (Genedata; Basel, Switzerland) to assess compound effects on viability. Compound treated wells were normalized to the median value of 14 DMSO control wells on the same 384 well plate.

VHL [2] = biological target: T1, VHL; assay: VHL HEK-293 BRET Assay (VHL NanoBRET Target Engagement Assay); conditions: IC50 values measured in the presence of digitonin; HEK 293 RT VHL-NanoLuc stable cells; read-out: IC50 + Digi (μM)*
NCI-H23 = assay: Cell Viability Assay (CellTiter-Glo); conditions: 5 days
Experimental: as §1, §2

T1 sequence (P40337 whole entry): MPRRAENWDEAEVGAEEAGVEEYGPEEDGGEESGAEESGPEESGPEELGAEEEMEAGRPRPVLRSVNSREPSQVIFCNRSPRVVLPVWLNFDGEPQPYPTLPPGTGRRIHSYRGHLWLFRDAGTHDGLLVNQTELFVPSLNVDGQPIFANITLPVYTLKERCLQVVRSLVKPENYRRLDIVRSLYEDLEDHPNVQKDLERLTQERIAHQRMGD

IC50 (VHL [1]) | IC50 (VHL [2]) | Structure (SMILES) | Normalized viability % DMSO (ABC-1; 1 μM) | Normalized viability % DMSO (NCI-H23; 1 μM) | Normalized viability % DMSO (ABC-1; 10 μM) | Normalized viability % DMSO (NCI-H23; 10 μM)
2910 nM | 5.86 µM | CNC(=O)C1CC(O)CN1C(=O)[C@@H](n1cc(C2CCC(C(=O)OC)CC2)nn1)C(C)(C)C (stereo in doubt) [Compound 829, Methyl 4-[1-[(1S)-1-[(2R,4S)-4-hydroxy-2-(methylcarbamoyl)pyrrolidine-1-carbonyl]-2,2-dimethyl-propyl]triazol-4-yl]cyclohexanecarboxylate] | 10.6 % DMSO | – | – | –
– | – | CC(C)(C)[C@@H](C(=O)N1C[C@H](O)C[C@H]1C(=O)NCC12CCCC(C1)C(=O)N2)n1cc(C2CC2)nn1 (stereo partly drawn) [Compound 110, (2S,4R)-1-[(2S)-2-(4-cyclopropyltriazol-1-yl)-3,3-dimethyl-butanoyl]-4-hydroxy-N-[(7-oxo-6-azabicyclo[3.2.1]octan-5-yl)methyl]pyrrolidine-2-carboxamide] | – | 18.9 % DMSO | – | –
10 nM | 0.0142 µM | CC(C)(C)[C@@H](C(=O)N1C[C@H](O)C[C@H]1C(=O)NCc1ncc(-c2ccccc2)s1)n1cc(C2CC2)nn1 [Compound 140, (2S,4R)-1-[(2S)-2-(4-cyclopropyltriazol-1-yl)-3,3-dimethyl-butanoyl]-4-hydroxy-N-[(5-phenylthiazol-2-yl)methyl]pyrrolidine-2-carboxamide] | – | – | 45.3 % DMSO | –
1810 nM | 2.93 µM | CC(C)(C)[C@@H](C(=O)N1C[C@H](O)C[C@H]1C(=O)NC1CCc2c(Cl)cc(Cl)cc21)n1cc(C2CC2)nn1 (stereo partly drawn) [Compound 169, (2S,4R)-1-[(2S)-2-(4-cyclopropyltriazol-1-yl)-3,3-dimethyl-butanoyl]-N-(4,6-dichloroindan-1-yl)-4-hydroxy-pyrrolidine-2-carboxamide] | – | – | – | 39.3 % DMSO
11.4 nM | 0.0152 µM | CC(C)(C)[C@@H](C(=O)N1C[C@H](O)C[C@H]1C(=O)NC(CO)c1ccc(Br)c(F)c1)n1cc(C2CC2)nn1 (stereo partly drawn) [Compound 174, (2S,4R)-N-[1-(4-bromo-3-fluoro-phenyl)-2-hydroxy-ethyl]-1-[(2S)-2-(4-cyclopropyltriazol-1-yl)-3,3-dimethyl-butanoyl]-4-hydroxy-pyrrolidine-2-carboxamide] | – | – | 50.7 % DMSO | –
– | – | CN1CC(CCNC(=O)[C@@H]2C[C@@H](O)CN2C(=O)[C@@H](n2cc(C3CC3)nn2)C(C)(C)C)CC1=O (stereo partly drawn) [Compound 236, (2S,4R)-1-[(2S)-2-(4-cyclopropyltriazol-1-yl)-3,3-dimethyl-butanoyl]-4-hydroxy-N-[2-(1-methyl-5-oxo-pyrrolidin-3-yl)ethyl]pyrrolidine-2-carboxamide] | – | 18.7 % DMSO | – | –
15.6 nM | 0.0321 µM | CC(C)(C)[C@@H](C(=O)N1C[C@H](O)C[C@H]1C(=O)N[C@@H]1C[C@@H](c2ccccc2)Oc2ccccc21)n1cc(C2CC2)nn1 [Compound 343, (2S,4R)-1-[(2S)-2-(4-cyclopropyltriazol-1-yl)-3,3-dimethyl-butanoyl]-4-hydroxy-N-[(2S,4R)-2-phenylchroman-4-yl]pyrrolidine-2-carboxamide] | – | – | 44.1 % DMSO | –
2340 nM | 3.18 µM | CCc1onc(C)c1CNC(=O)[C@@H]1C[C@@H](O)CN1C(=O)[C@@H](n1cc(C2CC2)nn1)C(C)(C)C [Compound 405, (2S,4R)-1-[(2S)-2-(4-cyclopropyltriazol-1-yl)-3,3-dimethyl-butanoyl]-N-[(5-ethyl-3-methyl-isoxazol-4-yl)methyl]-4-hydroxy-pyrrolidine-2-carboxamide] | – | – | 7.6 % DMSO | –
3890 nM | 4.3 µM | CC(C)(C)[C@@H](C(=O)N1C[C@H](O)C[C@H]1C(=O)NCC1CCS(=O)(=O)c2ccccc21)n1cc(C2CC2)nn1 (stereo partly drawn) [Compound 420, (2S,4R)-1-[(2S)-2-(4-cyclopropyltriazol-1-yl)-3,3-dimethyl-butanoyl]-N-[(1,1-dioxo-3,4-dihydro-2H-thiochromen-4-yl)methyl]-4-hydroxy-pyrrolidine-2-carboxamide] | – | 10.8 % DMSO | – | –
802 nM | 2.17 µM | CC(C)(C)[C@@H](C(=O)N1C[C@H](O)C[C@H]1C(=O)NCCC1(O)CN(C(c2ccccc2)c2ccccc2)C1)n1cc(C2CC2)nn1 [Compound 449, (2S,4R)-N-[2-(1-benzhydryl-3-hydroxy-azetidin-3-yl)ethyl]-1-[(2S)-2-(4-cyclopropyltriazol-1-yl)-3,3-dimethyl-butanoyl]-4-hydroxy-pyrrolidine-2-carboxamide] | – | – | – | 43.4 % DMSO
17200 nM | 22.2 µM | CC[S+]([O-])C1CCCCC1NC(=O)[C@@H]1C[C@@H](O)CN1C(=O)[C@@H](n1cc(C2CC2)nn1)C(C)(C)C (stereo partly drawn) [Compound 554, (2S,4R)-1-[(2S)-2-(4-cyclopropyltriazol-1-yl)-3,3-dimethyl-butanoyl]-N-(2-ethylsulfinylcyclohexyl)-4-hydroxy-pyrrolidine-2-carboxamide] | – | – | 38.2 % DMSO | –
960 nM | 1.48 µM | CNC(=O)[C@@H]1C[C@@H](O)CN1C(=O)[C@@H](n1cc(COc2ccccc2F)nn1)C(C)(C)C [Compound 729, (2S,4R)-1-[(2S)-2-[4-[(2-fluorophenoxy)methyl]triazol-1-yl]-3,3-dimethyl-butanoyl]-4-hydroxy-N-methyl-pyrrolidine-2-carboxamide] | – | 7.4 % DMSO | 35.8 % DMSO | –
1920 nM | 2.46 µM | CNC(=O)[C@@H]1C[C@@H](O)CN1C(=O)[C@@H](n1cc(-c2cnc(F)cc2C)nn1)C(C)(C)C [Compound 792, (2S,4R)-1-[(2S)-2-[4-(6-fluoro-4-methyl-3-pyridyl)triazol-1-yl]-3,3-dimethyl-butanoyl]-4-hydroxy-N-methyl-pyrrolidine-2-carboxamide] | – | – | 13.9 % DMSO | –
5460 nM | 3 µM | CNC(=O)[C@@H]1C[C@@H](O)CN1C(=O)[C@@H](n1cc(Cn2cnc3cc(C)c(C)cc32)nn1)C(C)(C)C [Compound 914, (2S,4R)-1-[(2S)-2-[4-[(5,6-dimethylbenzimidazol-1-yl)methyl]triazol-1-yl]-3,3-dimethyl-butanoyl]-4-hydroxy-N-methyl-pyrrolidine-2-carboxamide] | – | – | – | 44.5 % DMSO
17300 nM | 2.33 µM | CC(C)(C)[C@@H](C(=O)N1C[C@H](O)C[C@H]1C(=O)NCCCn1cnc2c(N)ncnc21)n1cc(C2CC2)nn1 [Compound 1129, (2S,4R)-N-[3-(6-aminopurin-9-yl)propyl]-1-[(2S)-2-(4-cyclopropyltriazol-1-yl)-3,3-dimethyl-butanoyl]-4-hydroxy-pyrrolidine-2-carboxamide] | – | – | 4.2 % DMSO | –
– | – | Cn1c(CCNC(=O)[C@@H]2C[C@@H](O)CN2C(=O)[C@@H](n2cc(C3CC3)nn2)C(C)(C)C)nc2c(F)cccc21 [Compound 1131, (2S,4R)-1-[(2S)-2-(4-cyclopropyltriazol-1-yl)-3,3-dimethyl-butanoyl]-N-[2-(4-fluoro-1-methyl-benzimidazol-2-yl)ethyl]-4-hydroxy-pyrrolidine-2-carboxamide] | – | 21.7 % DMSO | – | –
